From patent US20250282895A1, “PHARMACEUTICAL COMPOSITIONS OF CHEMOTHERAPEUTIC AGENTS BASED ON BETA-S[…]-AMINO ACID DERIVATIVES” (priority 2021, published 2025)
Where a name gives a salt, the structure may show the parent alone.

Test: Stability (impurities) of Compound (1c):SBE6.5-β-CD formulations at different pH values
Assay type: physicochemical
Settings: listed as Compound (1c) HCl salt, mono hydrochloride salt
Method: The stability of Compound (1c) in formulations containing a Compound (1c): SBE6.5-β-CD guest-host inclusion complex at different pH was determined by analytical HPLC/UV. The mass ratio of Compound (1c) to SBE6.5-β-CD was either 1:54 or 1:50.
To prepare the formulations, SBE6.5-β-CD was dissolved in water for injection (WFI) by continuous stirring until a clear solution was obtained. The solution was acidified by addition of 1 N HCl. Compound (1c) was dissolved in the acidified aqueous SBE6.5-β-CD solution and water was added at Q.S. to the final volume to prepare a solution with a nominal concentration of 5.0 mg/mL of Compound (1c). The pH was adjusted with 1 N HCl to the values shown in Table 7 which corresponded to the pH of the final formulation after reconstitution with 0.9% saline. The solution was filtered through a 0.22 μm syringe filter followed by lyophilization to dryness affording a colorless powdery solid. The freeze-dried lyophilizate was reconstituted with 0.9% saline to the nominal target concentration of 5.0 mg/mL of Compound (1c). […]
Analytical HPLC/UV was performed on a HPLC chromatograph equipped with a UV detector, a Waters Xbridge® C18 column (4.6× 150 mm; 5 μm) operated at 30° C. and a personal computer for data computation. Gradients of 0.01 M potassium dihydrogen phosphate solution (KH2PO4) solution adjusted to pH to 3.0 with phosphoric acid (H3PO4): acetonitrile=850:150 (v/v) (solvent A) and acetonitrile (MeCN; solvent B) were used in the analytical HPLC/UV analyses. The needle wash was performed with 50% aqueous acetonitrile. Prior to injection into the HPLC/UV system (10 μL injection volume), samples were diluted to a nominal concentration of 0.5 mg/mL of Compound (1c) with a 0.9 M sodium chloride (NaCl) and 0.1 N hydrochloric acid (HCl) diluent. The diluent solution was prepared from 5.26 g (90.0 mmol) of sodium chloride and 850 μL of concentrated hydrochloric acid (HCl) (36-38 wt-%, d 1.184, 1.00 g, 10.2 mmol) diluted to 100 mL solution.
The HPLC/UV method used employed a gradient from 10 vol-% of solvent B to 100 vol-% of solvent B with a 36 min runtime at a flow rate of 1.5 mL/min and UV detection at 2=220 nm.

[1] = Compound (1c):SBE6.5-β-CD 1:54, pH 4.1, 0 h, 5.0 mg/mL in 0.9% saline
[2] = Compound (1c):SBE6.5-β-CD 1:54, pH 4.1, Cake

Cc1ccc(N(CCCl)CCCl)cc1C[C@H](N)CC(=O)O [Compound (1c)•HCl, (S)-3-amino-4-(5-(bis(2-chloroethyl)amino)-2-methylphenyl) butanoic acid mono hydrochloride salt]
Impurity (% AUC) RRT 0.36 [1]: 1.51 % AUC | Impurity (% AUC) RRT 1.31 [1]: 0.18 % AUC | Impurity (% AUC) Total [1]: 2.2 % AUC | Impurity (% AUC) RRT 0.36 [2]: 1.51 % AUC | Impurity (% AUC) RRT 1.31 [2]: 0.18 % AUC | Impurity (% AUC) Total [2]: 2.13 % AUC
